Common to all, as to type: biochemical
One test has as its target T1, VEGFR2 (Homo sapiens, UniProt P35968).
T1 construct: purchased Carna 08-191
Briefly: Assay I: kinase inhibition (HTRF KinEASE-TK), VEGFR2. Particulars: Table 1; ATP working concentration 5 μM, substrate TK 1 μM. (TR-FRET usually uses a lanthanide donor and a delayed reading to cut background.)

For the next test, the target named is T2, FGFR3 (Homo sapiens, UniProt P22607).
T2 construct: purchased Carna 08-135
Kind of test: Assay II: inhibitory activity against wild-type FGFR (HTRF KinEASE-TK). Particulars: Table 2, ATP working concentration 50 μM, substrate TK 1 μM. On the procedure: (§1) Assay II: Determination of inhibitory activity against wild-type FGFR
(§2) 1×Kinase reaction buffer was formulated with 1×volume of 5× kinase reaction buffer and 4×volume of water; 5 mM MgCl2; and 1 mM DTT.
(§3) 3. Formulating 2×FGFR1/FGFR2/FGFR3 with 1× of enzyme reaction buffer.
(§4) 4. Adding 2 μl FGFR1/FGFR2/FGFR3 kinase (formulated in step 3) to each well of the reaction plate.
(§5) 5. Adding 1 μl of the compound diluted in buffer to each well, sealing the plate with a sealing membrane and centrifuging the plate at 1000 g for 30 seconds and leaving it at room temperature for 10 minutes.
(§6) 6. Formulating 2.5×TK-substrate-biotin and ATP mixture with 1× enzyme reaction buffer and adding 2 μl of K-substrate-biotin/ATP mixture to the reaction plate.
(§7) 7. Sealing the plate with a sealing membrane and centrifuging the plate at 1000 g for 30 seconds and allowing it to react at room temperature for 50 minutes.
(§8) 3.3 Calculation of IC50 and plotting of inhibition curves for the compounds.
(§9) The IC50 (half inhibition concentration) of a compound was obtained using the following non-linear fitting equation, wherein data analysis was performed using Graphpad 6.0 software.
(§10) Data were exported from Envision and analyzed manually. The ratios were converted to inhibition rates and IC50 was calculated by Prism GraphPad 6.0 from the inhibition rates. IC50 was calculated again by the ratios to verify accuracy of the results.

The next test has as its target T3, FGFR2 (Homo sapiens, UniProt P21802).
T3 construct: purchased Carna 08-134
The test is described as above. Particulars: Table 2, ATP working concentration 50 μM, substrate TK 1 μM. On the procedure:
as §1, §2, §3, §4, §5, §6, §7, §8, §9, §10

The next test concerns the target T4, FGFR1 (Homo sapiens, UniProt P11362).
T4 construct: purchased Carna 08-133
The test is described as above. Particulars: Table 2, ATP working concentration 50 μM, substrate TK 1 μM. The protocol: as §1, §2, §3, §4, §5, §6, §7, §8, §9, §10

Another test has as its target T5, FGFR3 V555M (Homo sapiens, UniProt P22607, V555M).
T5 construct: purchased Signalchem F06-12GG
Briefly: Assay I: inhibitory activity against FGFR mutants (HTRF KinEASE-TK). The conditions noted are these: Table 1; ATP working concentration 20 μM, substrate TK 1 μM. The protocol:
(§11) Assay I: Determination of Inhibitory Activity Against FGFR Mutants
as §2
2.3 Screening of Compounds: • 1. Diluting a compound 4-fold in a dilution plate with DMSO, with a starting compound concentration of 2 mM (4 mM for Nentedanib). • 2. Diluting the compound 40-fold into 1× kinase reaction buffer and shaking it on a shaker for 20 minutes. • 3. […] Adding 1 μl of the compound diluted in buffer to each well, sealing the plate with a sealing membrane and centrifuging the plate at 1000 g for 30 seconds and leaving it at room temperature for 10 minutes. • 6. Formulating 2.5×TK-substrate-biotin and ATP mixture with 1× enzyme reaction buffer and adding 2 μl of K-substrate-biotin/ATP mixture to the reaction plate. • 7. Sealing the plate with a sealing membrane and centrifuging the plate at 1000 g for 30 seconds and allowing it to react at room temperature for 50 minutes. • 8. Formulating 4×Sa-XL 665 (250 nM) with HTRF assay buffer. • 9. Adding 5 μl Sa-XL 665 and 5 μl TK-Antibody-Cryptate to each well, centrifuging it at 1000 g for 30 seconds, and allowing it to react for 1 hour at room temperature. • 10. Reading fluorescence signals at 615 nm (Cryptate) and 665 nm (XL665) with Biotek. 3. Data Analysis
3.1 Calculation of the ratio for each well: the ratio was calculated as 665/615 nm.
as §8, §9, §10

Another test deals with T6, FGFR1 V561M (Homo sapiens, UniProt P11362, V561M).
T6 construct: purchased Signalchem F04-13G
Described as above. Particulars: Table 1; ATP working concentration 5 μM, substrate TK 1 μM. The protocol: as §11, §2
(§12) 2.3 Screening of Compounds: • 1. […] Adding 1 μl of the compound diluted in buffer to each well, sealing the plate with a sealing membrane and centrifuging the plate at 1000 g for 30 seconds and leaving it at room temperature for 10 minutes. • 6. Formulating 2.5×TK-substrate-biotin and ATP mixture with 1× enzyme reaction buffer and adding 2 μl of K-substrate-biotin/ATP mixture to the reaction plate. • 7. Sealing the plate with a sealing membrane and centrifuging the plate at 1000 g for 30 seconds and allowing it to react at room temperature for 50 minutes. • 8. […] 3. Data Analysis
as §8, §9, §10

The target of the next test is T7, FGFR2 V564F (Homo sapiens, UniProt P21802, V564F).
T7 construct: purchased Signalchem F05-12FG
The description is as above. Particulars: Table 1; ATP working concentration 10 μM, substrate TK 1 μM. The protocol: as §11, §2, §12, §8, §9, §10

The target of another test is FGFR3 K650E (Homo sapiens, UniProt P22607, K650E). Described as above. The conditions noted are these: Table 1; ATP working concentration 50 μM, substrate TK 1 μM. On the procedure:
as §11, §2, §12, §8, §9, §10

For four compounds, IC50 results are on record in patent US12630530B2, “FGFR inhibitor compound and use thereof” (HENAN MEDINNO PHARMACEUTICAL TECHNOLOGY CO., LTD., priority 2020, dated 2026).

T6 sequence (P11362 22-822 V561M): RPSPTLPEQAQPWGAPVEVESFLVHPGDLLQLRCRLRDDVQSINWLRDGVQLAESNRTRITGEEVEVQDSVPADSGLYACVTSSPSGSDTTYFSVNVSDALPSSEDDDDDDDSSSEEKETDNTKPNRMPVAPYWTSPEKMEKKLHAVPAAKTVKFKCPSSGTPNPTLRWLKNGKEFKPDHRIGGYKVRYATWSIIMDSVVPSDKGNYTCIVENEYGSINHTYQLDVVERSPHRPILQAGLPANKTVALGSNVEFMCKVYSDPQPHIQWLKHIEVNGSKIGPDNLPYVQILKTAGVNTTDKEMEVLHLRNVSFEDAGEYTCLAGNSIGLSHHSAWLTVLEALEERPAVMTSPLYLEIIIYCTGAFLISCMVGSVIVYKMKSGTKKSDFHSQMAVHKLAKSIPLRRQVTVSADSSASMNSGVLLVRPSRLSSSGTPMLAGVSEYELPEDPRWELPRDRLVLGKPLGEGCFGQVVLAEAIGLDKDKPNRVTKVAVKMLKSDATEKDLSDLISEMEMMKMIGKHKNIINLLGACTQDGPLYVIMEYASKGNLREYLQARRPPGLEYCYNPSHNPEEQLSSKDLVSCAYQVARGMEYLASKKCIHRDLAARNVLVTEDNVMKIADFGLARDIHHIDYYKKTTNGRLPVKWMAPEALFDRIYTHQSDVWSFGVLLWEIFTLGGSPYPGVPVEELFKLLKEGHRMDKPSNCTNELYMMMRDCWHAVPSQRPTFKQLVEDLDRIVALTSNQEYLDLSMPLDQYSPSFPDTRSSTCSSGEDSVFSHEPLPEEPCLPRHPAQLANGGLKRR
T5 sequence (P22607 23-806 V555M): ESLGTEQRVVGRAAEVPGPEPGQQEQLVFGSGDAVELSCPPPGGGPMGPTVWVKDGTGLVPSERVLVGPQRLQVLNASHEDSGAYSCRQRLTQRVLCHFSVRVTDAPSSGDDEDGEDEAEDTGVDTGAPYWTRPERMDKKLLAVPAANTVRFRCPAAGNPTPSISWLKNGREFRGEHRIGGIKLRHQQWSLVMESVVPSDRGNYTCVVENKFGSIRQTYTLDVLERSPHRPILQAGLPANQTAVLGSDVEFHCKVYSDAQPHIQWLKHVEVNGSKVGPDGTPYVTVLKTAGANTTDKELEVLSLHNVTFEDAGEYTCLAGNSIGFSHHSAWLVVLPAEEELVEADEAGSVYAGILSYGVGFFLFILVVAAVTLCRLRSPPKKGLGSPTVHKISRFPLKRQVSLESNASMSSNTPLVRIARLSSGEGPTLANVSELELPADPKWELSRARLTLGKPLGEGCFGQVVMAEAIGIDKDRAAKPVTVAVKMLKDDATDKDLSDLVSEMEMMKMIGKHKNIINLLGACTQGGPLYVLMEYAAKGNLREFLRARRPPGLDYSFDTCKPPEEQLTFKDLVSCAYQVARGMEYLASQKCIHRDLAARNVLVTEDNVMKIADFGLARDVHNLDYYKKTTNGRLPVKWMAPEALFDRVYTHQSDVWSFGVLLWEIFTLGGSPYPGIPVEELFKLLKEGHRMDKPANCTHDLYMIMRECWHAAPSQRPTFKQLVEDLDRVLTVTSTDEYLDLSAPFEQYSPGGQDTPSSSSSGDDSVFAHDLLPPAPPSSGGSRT
T7 sequence (P21802 22-821 V564F): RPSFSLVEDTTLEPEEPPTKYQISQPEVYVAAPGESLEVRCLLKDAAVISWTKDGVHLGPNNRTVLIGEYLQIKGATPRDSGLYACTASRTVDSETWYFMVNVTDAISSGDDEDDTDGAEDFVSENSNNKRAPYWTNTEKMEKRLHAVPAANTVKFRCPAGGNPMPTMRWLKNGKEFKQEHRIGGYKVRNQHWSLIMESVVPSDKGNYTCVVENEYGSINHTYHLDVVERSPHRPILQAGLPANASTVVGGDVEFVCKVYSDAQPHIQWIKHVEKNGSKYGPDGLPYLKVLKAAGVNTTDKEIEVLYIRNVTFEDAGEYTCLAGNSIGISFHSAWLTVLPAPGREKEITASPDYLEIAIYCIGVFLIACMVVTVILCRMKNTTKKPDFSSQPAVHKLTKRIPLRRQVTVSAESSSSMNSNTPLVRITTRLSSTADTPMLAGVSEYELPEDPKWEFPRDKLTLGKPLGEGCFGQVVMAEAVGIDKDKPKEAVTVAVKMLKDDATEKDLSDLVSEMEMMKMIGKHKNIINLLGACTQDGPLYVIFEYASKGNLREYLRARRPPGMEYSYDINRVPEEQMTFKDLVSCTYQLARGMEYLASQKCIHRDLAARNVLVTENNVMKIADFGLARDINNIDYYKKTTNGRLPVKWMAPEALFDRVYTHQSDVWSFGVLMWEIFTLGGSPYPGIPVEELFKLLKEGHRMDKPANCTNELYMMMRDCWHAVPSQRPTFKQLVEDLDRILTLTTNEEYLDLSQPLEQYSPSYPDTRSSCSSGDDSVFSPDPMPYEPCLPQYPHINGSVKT
Chain of FGFR3 K650E (P22607 23-806 K650E): as the sequence (P22607 23-806 V555M) above, with M533V, K628E counted along it
T1 sequence (P35968 20-1356): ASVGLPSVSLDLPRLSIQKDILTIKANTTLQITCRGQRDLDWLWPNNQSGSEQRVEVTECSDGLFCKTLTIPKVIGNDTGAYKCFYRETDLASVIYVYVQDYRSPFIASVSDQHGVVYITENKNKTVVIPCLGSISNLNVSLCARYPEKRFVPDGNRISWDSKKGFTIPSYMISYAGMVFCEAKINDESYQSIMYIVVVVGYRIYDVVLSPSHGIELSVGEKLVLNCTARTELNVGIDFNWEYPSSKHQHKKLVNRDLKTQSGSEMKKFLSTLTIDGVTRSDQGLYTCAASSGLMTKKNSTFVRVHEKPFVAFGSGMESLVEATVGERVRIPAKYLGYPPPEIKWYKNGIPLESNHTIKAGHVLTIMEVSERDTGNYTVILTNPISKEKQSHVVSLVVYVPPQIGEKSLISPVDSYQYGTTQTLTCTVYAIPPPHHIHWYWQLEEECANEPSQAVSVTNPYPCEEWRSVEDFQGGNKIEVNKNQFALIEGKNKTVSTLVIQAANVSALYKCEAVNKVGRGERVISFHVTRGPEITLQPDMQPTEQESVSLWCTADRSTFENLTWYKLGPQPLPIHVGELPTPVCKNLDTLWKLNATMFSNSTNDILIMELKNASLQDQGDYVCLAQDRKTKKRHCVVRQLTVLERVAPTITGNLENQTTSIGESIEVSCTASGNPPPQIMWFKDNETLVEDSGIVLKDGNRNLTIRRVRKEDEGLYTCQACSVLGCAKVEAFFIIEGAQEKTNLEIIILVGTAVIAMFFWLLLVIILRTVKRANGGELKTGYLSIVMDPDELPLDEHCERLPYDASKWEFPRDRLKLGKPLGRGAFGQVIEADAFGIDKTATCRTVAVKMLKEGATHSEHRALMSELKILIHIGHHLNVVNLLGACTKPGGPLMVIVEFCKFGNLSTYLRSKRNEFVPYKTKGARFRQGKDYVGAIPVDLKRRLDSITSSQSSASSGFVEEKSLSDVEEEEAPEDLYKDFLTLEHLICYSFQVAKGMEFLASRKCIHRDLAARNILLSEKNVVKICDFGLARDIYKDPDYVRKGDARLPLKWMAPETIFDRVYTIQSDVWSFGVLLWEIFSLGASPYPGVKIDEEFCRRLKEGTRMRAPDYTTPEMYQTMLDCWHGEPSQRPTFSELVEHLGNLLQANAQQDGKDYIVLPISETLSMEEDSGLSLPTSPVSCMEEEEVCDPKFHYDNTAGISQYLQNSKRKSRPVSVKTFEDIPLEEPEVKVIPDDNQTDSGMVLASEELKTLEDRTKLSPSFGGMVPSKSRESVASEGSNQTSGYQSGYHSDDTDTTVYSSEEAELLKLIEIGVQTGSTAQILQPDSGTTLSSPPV
T4 sequence (P11362 22-822): as the sequence (P11362 22-822 V561M) above, with M540V counted along it
T2 sequence (P22607 23-806): as the sequence (P22607 23-806 V555M) above, with M533V counted along it
T3 sequence (P21802 22-821): as the sequence (P21802 22-821 V564F) above, with F543V counted along it

Take `CCN1CCN(c2ccc(NC(=O)c3n[nH]c4ccc(OC(C)c5c(Cl)cncc5Cl)cc34)cc2)CC1` (centres unmarked) [Compound 10, 5-(1-(3,5-dichloropyridin-4-yl)ethoxy)-N-(4-(4-ethylpiperazin-1-yl)phenyl)-1H-indazole-3-carboxamide]: the half-inhibitory concentration (IC50) against VEGFR2 is 1390 nM; against FGFR3, 98.8 nM; against FGFR2 it was 48 nM; at FGFR1, 64.5 nM; on FGFR3 V555M, 2 nM; at FGFR1 V561M, 1.7 nM. For the same compound, it took 3.2 nM to reach half-maximal inhibition against FGFR2 V564F (IC50).

Take `CC(Oc1ccc2[nH]nc(C(=O)Nc3ccc(N4C[C@@H](C)N[C@@H](C)C4)cc3)c2c1)c1c(Cl)cncc1Cl` (stereo partly drawn) [Compound 1, 5-(1-(3,5-dichloropyridin-4-yl)ethoxy)-N-(4-((3S,5R)-3,5-dimethylpiperazin-1-yl)phenyl)-1H-indazole-3-carboxamide]: the 50% inhibitory concentration (IC50) on FGFR3 V555M was found to be 8.6 nM; against FGFR1 V561M, 6.3 nM; against FGFR3 K650E it was 26.8 nM; at FGFR2 V564F, 2.3 nM.

With `CC(Oc1ccc2[nH]nc(C(=O)Nc3cnn(CCO)c3)c2c1)c1c(Cl)cncc1Cl` (centres unmarked) [Compound 2, 5-(1-(3,5-dichloropyridin-4-yl)ethoxy)-N-(1-(2-hydroxyethyl)-1H-pyrazol-4-yl)-1H-indazole-3-carboxamide], the IC50 against VEGFR2 was 176 nM; on FGFR3 V555M, 2.2 nM; on FGFR1 V561M, 7 nM; on FGFR3 K650E it was 30 nM; on FGFR2 V564F it was 2 nM.

For `CC(Oc1ccc2[nH]nc(C(=O)Nc3cnn(C(C)CC#N)c3)c2c1)c1c(Cl)cncc1Cl` (centres unmarked) [Compound 5, N-(1-(1-cyanopropan-2-yl)-1H-pyrazol-4-yl)-5-(1-(3,5-dichloropyridin-4-yl)ethoxy)-1H-indazole-3-carboxamide], the IC50 against FGFR3 V555M was 4.6 nM; against FGFR1 V561M, 7.2 nM; against FGFR3 K650E, 33.4 nM; against FGFR2 V564F it was 2.4 nM.

The term IC50 denotes the concentration that gives 50% inhibition.
